Experimental data published in patent US11198680B2 (BioAxone BioSciences, Inc., priority 2016, dated 2021).
Where two headings read alike, the source gives them in different places.

What was measured:
[1] = Brain concentration after IV BA-1049 (R), LC-MS/MS; type: in vivo; details: mouse
Procedure: Mice are dosed either by intravenous (IV) administration or oral (PO) administration via oral gavage.
After IV dosing, brains are collected from 4 mice at each time point: 0.083 hr, 0.5 hr, 2 hr, 6 hr, 12 hr, and 24 hr after dose. Each mouse is euthanized by CO2. The entire brains are removed, weighed, rinsed with PBS, placed in tubes, and snap frozen in liquid nitrogen.
Brain tissue was homogenized in 1 mL/g PBS. Brain homogenates are precipitated by pipetting 200 μL of homogenate into a tube using aseptically cut off 1000 μL pipette tips to prevent clogging.

[2] = test system: HUVEC monolayer; experiment: LPA-treated HUVECs, endothelial monolayer integrity; type: cell-based, human; details: 1 μM or 10 μM, 20 μM LPA 60 min
Procedure: Cell lines were exposed to each dose for 1 hr, and then are stimulated with 20 μM LPA for either 5 min or 1 hr as described below. All experiments were conducted in triplicate and analyzed by two independent assessors blinded to both cell line and treatment.
To examine HUVEC monolayer integrity, cells were plated on PDL-coated coverslips (Corning) coated with fibronectin, collagen-1 and gelatin. 50,000 cells were seeded on each coverslip situated in a 24-well plate. Cells were grown for 3 days at 37° C./5% CO2. […] The medium was exchanged by Medium 200 supplemented with 0.1% HSA and 20 μM of LPA (Santa Cruz) and incubated for 60 min.
After LPA stimulation, cells were fixed with 4% paraformaldehyde and stained for actin-phalloidin (ThermoFisher, Waltham, Mass.) and V-Cadherin (Cell Signaling, Danvers, Mass.) and mounted on microscope slides. Coverslips were imaged by fluorescence microscopy and the cell free holes in the monolayer are measured using Image J (freeware; https://imagej.nih.gov/ij/).

[3] = test system: Rho/ROCK activity (MLC2 diphosphorylation) in human brain microvascular endothelial cells; experiment: LPA-treated hBMVECs, pMLC2 T18/S19 immunoblot; type: cell-based; details: 20 μM LPA, Example 16, present tense
Procedure: Cells are exposed to each dose for 1 hr, and are then stimulated with 20 μM LPA for either 5 min or 1 hr as described below. All experiments are conducted in triplicate and analyzed by 2 independent assessors blinded to both cell line and treatment.
Cells are subjected to biochemical analysis of diphosphorylated MLC2 (Threonine 18/Serine 19 phosphorylation sites) and phosphorylated cofilin (Serine 9 phosphorylation site) using SDS-PAGE and immunoblotting. Cells are plated in 24-well tissue culture plates coated with 70 μg/ml rat collagen-1 (Corning) and grown in ENDO-growth media (Neuromics) for 3 days at 37° C./5% CO2 until confluency. […] The medium is exchanged for ENDO basal media supplemented with 1% HSA, 20 μM of LPA (Santa Cruz Biotech; Santa Cruz, Calif.) and the appropriate amount of compound being tested. After 5 min, the medium is aspirated and the cells are briefly washed with 1×PBS. Proteins are extracted from cells by lysis with RIPA buffer supplemented with complete protease/phosphatase inhibitor (HALT, Thermo Fisher Scientific), reduced and denatured using Laemmli sample buffer (BioRad; Hercules, Calif., beta-mercaptoethanol and subjected to SDS-PAGE.
Denatured samples are electrophoresed in reducing 10% Bis-Tris-PA gels (Novex; Thermo-Fisher), and are transferred onto 0.25 μm PVDF membranes (EMD Millipore). Membranes are probed using amti-pMLC2 T18/S19 (1:500; Cell Signaling) or anti-pCofilin (1:500, Cell Signaling S9) and anti-glyceraldehyde 3-phosphate dehydrogenase loading control (GAPDH, 1:10000; Abcam, Cambridge, Mass.). Protein levels are detected using a chemiluminescence substrate (Super Signal West, ThermoFisher) and images are captured using a FluoroChem SP Imaging System.

[4] = test system: intracellular ROCK activity (ppMLC2 T18/S19) in HUVECs; experiment: HUVEC ppMLC2 dose-response; type: cell-based, human; details: for EC50: 1 h exposure, read-out: EC50 for reduction of MLC2 diphosphorylation; for maximum reduction of ppMLC2 levels: highest dose tested 1 mM, 1 h
Procedure: Cells were exposed to each dose for 1 h. All experiments were conducted in triplicate and analyzed by 2 independent assessors blinded to the compound and compound concentration.
Cells were subjected to biochemical protein analysis of di-phosphorylated MLC2 (Threonine 18/Serine 19 phosphorylation sites) using SDS-PAGE and immunoblotting. Cells were plated in a 24-well tissue culture plates, coated with 70 μg/ml rat collagen-1 (Corning) and grown for 2-3 days at 37° C./5% CO2 until confluency. […] Drugs were diluted in Medium 200 (Thermo Fisher Scientific) supplemented with 0.1% human serum albumin (HSA, Sigma-Aldrich). After 1 h, cells were lysed with RIPA buffer (Boston Bioproducts; Ashland, Mass.) supplemented with complete protease/phosphatase inhibitors (HALT, Thermo Fisher Scientific), reduced, and denatured with Laemmli sample buffer (BioRad)/beta-mercaptoethanol. Denatured samples were electrophoresed in reducing 10% Bis-Tris-PA gels (Novex) and then transferred onto 0.25 μm PVDF membranes (EMD Millipore). Membranes were incubated with 4% bovine serum albumin solution to block unspecific antibody binding sites and then immunolabeled for ppMLC2 T18/S19 (1:500, Cell Signaling) and glyceraldehyde 3-phosphate dehydrogenase loading control (GAPDH, 1:10,000; Abcam). Protein levels were detected using a chemiluminescence substrate (Super Signal West, ThermoFisher) and were captured with FluoroChem SP imaging system. Chemiluminescence of ppMLC2 and GAPDH was measured by densitometric analysis. ppMLC2 signal was normalized against GAPDH signal plotted as percentage of no treatment control (0 μM). EC50 values were determined by dose-response analysis using GraphPad software.

[5] = biological target: ALK (Homo sapiens (Human), UniProt Q9UM73); experiment: KINOMEscan kinome screen; details: percent of negative control binding
Description: (§1) The KINOMEscan™ screening platform (DiscoverX, Fremont, Calif.) employs a novel active site-directed competition binding assay to quantitatively measure interactions between test compounds and more than 450 human kinases and disease relevant mutant variants. […] Compounds that bind the kinase active site and directly (sterically) or indirectly (allosterically) prevent kinase binding to the immobilized ligand, will reduce the amount of kinase captured on the solid support. […] Screening “hits” are identified by measuring the amount of kinase captured in test versus control samples by using a quantitative, precise and ultra-sensitive qPCR method that detects the associated DNA label.
(§2) Kinase-tagged T7 phage strains were grown in parallel in 24-well blocks in an E. coli host derived from the BL21 strain. E. coli were grown to log-phase and infected with T7 phage from a frozen stock (multiplicity of infection=0.4) and incubated with shaking at 32° C. until lysis (90-150 minutes). The lysates were centrifuged (6,000×g) and filtered (0.2 μm) to remove cell debris. The remaining kinases were produced in HEK-293 cells and subsequently tagged with DNA for qPCR detection (Wein, et al. (2016) Nat. Comm. 7). […] Test compounds were prepared as 40× stocks in 100% DMSO and directly diluted into the assay. All reactions were performed in polypropylene 384-well plates in a final volume of 0.02 ml.

[6] = biological target: FGFR4 (Homo sapiens (Human), UniProt P22455); experiment: KINOMEscan kinome screen; details: percent of negative control binding
Description: as §1, §2

[7] = biological target: IRAK3 (Homo sapiens (Human), UniProt Q9Y616); experiment: KINOMEscan kinome screen; details: percent of negative control binding
Description: as §1, §2

[8] = biological target: MARK1 (Homo sapiens (Human), UniProt Q9P0L2); experiment: KINOMEscan kinome screen; details: percent of negative control binding
Description: as §1, §2

[9] = biological target: MARK2 (Homo sapiens (Human), UniProt Q7KZI7); experiment: KINOMEscan kinome screen; details: percent of negative control binding
Description: as §1, §2

[10] = biological target: MARK3 (Homo sapiens (Human), UniProt P27448); experiment: KINOMEscan kinome screen; details: percent of negative control binding
Description: as §1, §2

[11] = biological target: MARK4 (Homo sapiens (Human), UniProt Q96L34); experiment: KINOMEscan kinome screen; details: percent of negative control binding
Description: as §1, §2

[12] = biological target: MEK1 (Homo sapiens (Human), UniProt Q02750); experiment: KINOMEscan kinome screen; details: percent of negative control binding
Description: as §1, §2

[13] = biological target: MEK2 (Homo sapiens (Human), UniProt P36507); experiment: KINOMEscan kinome screen; details: percent of negative control binding
Description: as §1, §2

[14] = biological target: PRKCQ (Homo sapiens (Human), UniProt Q04759); experiment: KINOMEscan kinome screen; details: percent of negative control binding
Description: as §1, §2

[15] = biological target: SLK (Homo sapiens (Human), UniProt Q9H2G2); experiment: KINOMEscan kinome screen; details: percent of negative control binding
Description: as §1, §2

[16] = biological target: NET (norepinephrine transporter) (Homo sapiens (Human), UniProt P23975); experiment: SAFETYscan neurotransmitter transporter activity; type: cell-based
Procedure: (§3) The SAFETYscan™ (DiscoverX) is used for rapid testing of any compound against a panel that includes well-known membrane proteins of importance for drug development such as selected voltage-gated ion channels, G-protein coupled receptors, neurotransmitter transporters and also a selected group of purified cellular enzymes.
(§4) Cell lines engineered to express individual transmembrane receptor proteins such as the muscarinic acetylcholine receptor or the dopamine D1 receptor were grown in culture in their standard growth medium until reaching confluence. […] The experiment also contains controls for comparison including known agonists and antagonists of the targeted membrane proteins.

[17] = biological target: SERT (serotonin transporter) (Homo sapiens (Human), UniProt P31645); experiment: SAFETYscan neurotransmitter transporter activity; type: cell-based
Procedure: as §3, §4

[18] = Daily repeat dosing for 2 weeks in normal mice, adverse effects; type: in vivo, mouse
Procedure: In a separate set of experiments, daily repeat dosing experiments were performed to assess adverse effects. […] During the course of the experiment, animals were monitored daily for the appearance of any clinical signs. Hematology, blood chemistry, and histopathology were followed at termination of the experiment.

[19] = test system: cynomolgus monkey hepatocytes; experiment: Metabolism in cultured hepatocytes; type: in vitro ADME
[20] = test system: canine hepatocytes; experiment: Metabolism in cultured hepatocytes; type: in vitro ADME; details: Dog hepatocytes
[21] = test system: mouse hepatocytes; experiment: Metabolism in cultured hepatocytes; type: in vitro ADME
[22] = SAFETYscan off-target panel, all targets; details: 10 μM; except 5-HT2b-receptor
Procedure: as §3, §4
For assays using purified enzymes, an enzyme assay is set up in standard reaction buffer and necessary indicators for activity such as co-factors, buffers and synthetic substrates. […] As positive controls, a binding assay using Rho kinase (ROCK) was included in the panel. Other targets in the panel included G-protein coupled receptors, nuclear hormone receptors, intracellular non-kinase enzymes, ion channels, and neurotransmitter transporters. The specific targets were chosen because of their previous known associations with being the source of problematic off-target effects in cellular or whole animal studies.

[23] = biological target: T1, ROCK2 (Homo sapiens (Human), UniProt O75116); details: ratio of dissociation constants ROCK1/ROCK2
Procedure: (§5) The assay is performed by combining the DNA-tagged kinase, immobilized ligand, and a test compound. The ability of the test compound to compete with the immobilized ligand is measured via quantitative PCR of the DNA tag.
(§6) The highest concentration tested was 30 μM.

[24] = biological target: T1, ROCK2; experiment: biochemical
Procedure: as §5, §6

IRAK3, sequence (Q9Y616 whole entry): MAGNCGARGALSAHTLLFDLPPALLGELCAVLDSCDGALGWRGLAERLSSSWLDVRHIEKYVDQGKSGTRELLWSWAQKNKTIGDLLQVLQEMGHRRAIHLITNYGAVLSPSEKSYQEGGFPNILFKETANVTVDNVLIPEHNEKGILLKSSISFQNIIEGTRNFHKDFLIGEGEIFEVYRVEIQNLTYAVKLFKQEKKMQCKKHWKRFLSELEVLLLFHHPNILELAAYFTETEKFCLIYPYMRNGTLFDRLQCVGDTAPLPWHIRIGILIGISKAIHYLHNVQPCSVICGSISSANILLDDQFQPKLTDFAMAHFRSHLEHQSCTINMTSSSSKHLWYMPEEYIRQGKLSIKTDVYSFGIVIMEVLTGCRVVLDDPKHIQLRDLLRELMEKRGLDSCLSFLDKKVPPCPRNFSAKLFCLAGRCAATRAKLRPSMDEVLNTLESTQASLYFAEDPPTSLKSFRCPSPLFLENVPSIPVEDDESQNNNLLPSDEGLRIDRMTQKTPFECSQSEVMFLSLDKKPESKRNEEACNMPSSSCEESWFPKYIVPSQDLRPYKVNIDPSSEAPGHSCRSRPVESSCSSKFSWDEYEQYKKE
MARK4, sequence (Q96L34 whole entry): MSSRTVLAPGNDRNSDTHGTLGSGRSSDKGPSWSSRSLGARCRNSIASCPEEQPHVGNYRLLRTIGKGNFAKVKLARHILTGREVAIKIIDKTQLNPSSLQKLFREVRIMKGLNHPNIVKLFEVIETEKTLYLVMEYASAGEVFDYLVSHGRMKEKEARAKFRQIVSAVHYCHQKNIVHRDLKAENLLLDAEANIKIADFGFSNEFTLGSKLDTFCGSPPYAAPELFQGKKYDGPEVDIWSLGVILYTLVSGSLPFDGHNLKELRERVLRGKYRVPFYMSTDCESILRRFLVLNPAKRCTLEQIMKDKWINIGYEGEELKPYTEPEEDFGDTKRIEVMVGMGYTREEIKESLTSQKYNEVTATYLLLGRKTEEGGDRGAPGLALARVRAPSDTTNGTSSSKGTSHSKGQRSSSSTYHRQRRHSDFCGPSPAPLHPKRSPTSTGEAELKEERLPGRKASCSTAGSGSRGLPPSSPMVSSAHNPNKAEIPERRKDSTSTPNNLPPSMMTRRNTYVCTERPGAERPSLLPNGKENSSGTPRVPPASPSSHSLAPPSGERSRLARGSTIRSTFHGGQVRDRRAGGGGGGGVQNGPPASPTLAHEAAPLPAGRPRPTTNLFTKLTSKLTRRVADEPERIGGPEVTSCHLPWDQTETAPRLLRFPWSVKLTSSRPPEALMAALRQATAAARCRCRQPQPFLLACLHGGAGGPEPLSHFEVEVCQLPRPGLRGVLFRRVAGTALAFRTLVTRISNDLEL
PRKCQ, sequence (Q04759 whole entry): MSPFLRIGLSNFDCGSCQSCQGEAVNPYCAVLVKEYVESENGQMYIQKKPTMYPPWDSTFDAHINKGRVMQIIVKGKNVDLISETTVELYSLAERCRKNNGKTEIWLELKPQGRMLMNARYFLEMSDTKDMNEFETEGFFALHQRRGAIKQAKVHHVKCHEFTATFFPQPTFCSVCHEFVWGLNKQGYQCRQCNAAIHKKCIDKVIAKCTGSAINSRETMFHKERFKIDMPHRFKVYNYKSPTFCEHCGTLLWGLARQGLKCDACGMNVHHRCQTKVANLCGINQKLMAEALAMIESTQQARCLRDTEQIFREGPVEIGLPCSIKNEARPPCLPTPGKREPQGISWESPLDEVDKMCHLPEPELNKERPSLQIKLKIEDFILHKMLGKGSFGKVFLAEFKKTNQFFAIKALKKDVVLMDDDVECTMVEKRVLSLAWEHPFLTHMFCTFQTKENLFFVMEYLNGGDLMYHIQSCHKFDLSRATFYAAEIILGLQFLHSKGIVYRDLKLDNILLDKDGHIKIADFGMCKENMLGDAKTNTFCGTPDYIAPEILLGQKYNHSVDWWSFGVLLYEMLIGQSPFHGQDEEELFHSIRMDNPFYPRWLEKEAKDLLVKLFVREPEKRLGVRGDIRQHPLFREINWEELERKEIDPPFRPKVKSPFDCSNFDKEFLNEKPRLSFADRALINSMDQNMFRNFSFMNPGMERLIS
ALK, sequence (Q9UM73 19-1620): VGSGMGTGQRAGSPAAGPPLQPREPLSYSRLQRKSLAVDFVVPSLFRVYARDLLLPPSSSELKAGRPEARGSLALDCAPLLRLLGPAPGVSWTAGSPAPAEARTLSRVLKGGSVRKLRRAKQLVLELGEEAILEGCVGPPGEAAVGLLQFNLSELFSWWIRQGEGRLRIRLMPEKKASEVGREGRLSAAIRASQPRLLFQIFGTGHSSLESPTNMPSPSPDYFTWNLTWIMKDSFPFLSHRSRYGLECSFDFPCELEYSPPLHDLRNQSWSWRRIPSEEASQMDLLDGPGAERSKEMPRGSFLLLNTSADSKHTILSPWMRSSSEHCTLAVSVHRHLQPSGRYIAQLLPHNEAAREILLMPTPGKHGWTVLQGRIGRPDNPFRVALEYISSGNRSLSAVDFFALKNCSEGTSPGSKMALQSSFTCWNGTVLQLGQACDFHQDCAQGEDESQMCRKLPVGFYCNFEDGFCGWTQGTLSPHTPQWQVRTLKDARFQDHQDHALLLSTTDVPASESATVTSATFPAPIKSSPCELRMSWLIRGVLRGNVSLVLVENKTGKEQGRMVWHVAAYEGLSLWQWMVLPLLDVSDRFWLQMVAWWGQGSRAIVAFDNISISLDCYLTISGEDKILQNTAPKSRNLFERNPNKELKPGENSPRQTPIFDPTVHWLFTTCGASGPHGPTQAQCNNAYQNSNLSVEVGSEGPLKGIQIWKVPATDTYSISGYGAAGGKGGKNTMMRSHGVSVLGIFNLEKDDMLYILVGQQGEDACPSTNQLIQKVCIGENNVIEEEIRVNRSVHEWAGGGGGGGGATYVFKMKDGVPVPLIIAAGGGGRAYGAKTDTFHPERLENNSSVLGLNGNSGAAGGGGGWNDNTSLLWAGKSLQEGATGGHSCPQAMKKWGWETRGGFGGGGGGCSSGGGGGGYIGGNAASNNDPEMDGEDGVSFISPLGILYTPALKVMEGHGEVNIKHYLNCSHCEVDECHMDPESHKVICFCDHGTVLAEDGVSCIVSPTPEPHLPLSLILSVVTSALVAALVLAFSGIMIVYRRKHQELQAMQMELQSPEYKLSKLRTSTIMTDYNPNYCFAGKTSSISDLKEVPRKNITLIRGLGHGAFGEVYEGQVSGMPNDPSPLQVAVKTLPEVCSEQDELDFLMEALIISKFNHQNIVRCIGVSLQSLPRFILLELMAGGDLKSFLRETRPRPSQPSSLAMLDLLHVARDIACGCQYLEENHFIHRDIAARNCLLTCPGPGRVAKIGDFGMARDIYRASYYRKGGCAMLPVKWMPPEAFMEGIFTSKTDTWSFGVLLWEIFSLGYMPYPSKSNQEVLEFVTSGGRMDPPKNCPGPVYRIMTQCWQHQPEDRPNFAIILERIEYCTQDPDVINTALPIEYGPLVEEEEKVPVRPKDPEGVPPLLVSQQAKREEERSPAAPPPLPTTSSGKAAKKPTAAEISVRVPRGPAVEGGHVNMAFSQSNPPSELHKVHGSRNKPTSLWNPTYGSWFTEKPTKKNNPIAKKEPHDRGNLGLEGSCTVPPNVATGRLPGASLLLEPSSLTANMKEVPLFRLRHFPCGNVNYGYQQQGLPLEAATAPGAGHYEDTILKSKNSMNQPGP
MARK2, sequence (Q7KZI7 whole entry): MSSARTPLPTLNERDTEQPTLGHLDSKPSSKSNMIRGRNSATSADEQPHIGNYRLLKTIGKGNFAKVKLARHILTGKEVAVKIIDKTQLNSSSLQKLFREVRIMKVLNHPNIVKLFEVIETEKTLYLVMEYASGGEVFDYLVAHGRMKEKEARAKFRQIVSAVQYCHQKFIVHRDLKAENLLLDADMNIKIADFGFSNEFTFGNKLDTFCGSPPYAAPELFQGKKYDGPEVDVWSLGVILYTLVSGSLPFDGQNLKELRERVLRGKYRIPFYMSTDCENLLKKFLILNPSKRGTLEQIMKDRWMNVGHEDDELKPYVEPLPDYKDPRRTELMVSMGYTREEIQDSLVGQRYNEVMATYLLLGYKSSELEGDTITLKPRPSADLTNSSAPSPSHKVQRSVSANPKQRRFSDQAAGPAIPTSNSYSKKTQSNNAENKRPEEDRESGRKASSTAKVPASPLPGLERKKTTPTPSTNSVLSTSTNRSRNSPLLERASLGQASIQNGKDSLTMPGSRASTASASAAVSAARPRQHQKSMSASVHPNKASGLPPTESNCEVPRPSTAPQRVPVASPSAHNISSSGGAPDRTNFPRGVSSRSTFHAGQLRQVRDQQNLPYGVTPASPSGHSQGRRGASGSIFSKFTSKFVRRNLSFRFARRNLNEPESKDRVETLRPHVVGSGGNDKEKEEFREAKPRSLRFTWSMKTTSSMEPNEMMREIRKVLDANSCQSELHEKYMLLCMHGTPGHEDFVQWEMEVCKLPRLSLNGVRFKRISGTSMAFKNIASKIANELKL
MEK1, sequence (Q02750 whole entry): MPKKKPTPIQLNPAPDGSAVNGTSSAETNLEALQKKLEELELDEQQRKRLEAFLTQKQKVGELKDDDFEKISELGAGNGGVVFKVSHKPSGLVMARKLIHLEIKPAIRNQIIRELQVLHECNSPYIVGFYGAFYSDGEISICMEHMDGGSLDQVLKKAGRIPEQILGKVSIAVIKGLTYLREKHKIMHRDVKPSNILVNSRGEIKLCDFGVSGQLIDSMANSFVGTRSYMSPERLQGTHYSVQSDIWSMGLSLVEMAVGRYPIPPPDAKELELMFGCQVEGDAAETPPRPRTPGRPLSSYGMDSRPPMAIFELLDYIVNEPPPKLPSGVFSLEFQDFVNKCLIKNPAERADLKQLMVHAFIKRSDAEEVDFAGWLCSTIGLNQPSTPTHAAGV

Structure (SMILES)	maximum reduction of ppMLC2 levels [4]	% Negative Binding, ALK [5]	% Negative Binding, FGFR4 [6]	% Negative Binding, IRAK3 [7]	% Negative Binding, MARK1 [8]	% Negative Binding, MARK2 [9]	% Negative Binding, MARK3 [10]	% Negative Binding, MARK4 [11]	% Negative Binding, MEK1 [12]	% Negative Binding, MEK2 [13]	% Negative Binding, PRKCQ [14]	% Negative Binding, SLK [15]	further results
C[C@@H](N)C1CCN(S(=O)(=O)c2cccc3c(=O)[nH]ccc23)CC1 [1-hydroxy-BA-1049 (R)]	94%	81%	100%	96%	69%	100%	81%	92%	100%	97%	66%	100%	time detectable in brain after administration ([1]; in vivo, iv, 5 mg/kg): < 12 h; monolayer integrity after LPA [2]: restores monolayer integrity; concentration fully abolishing MLC2 diphosphorylation [3]: ≥ 10 µM; effect on MLC2 diphosphorylation (pMLC2 T18/S19) ([3]; no data shown): reduce MLC2 diphosphorylation; EC50 [4]: 449 nM; % Inhibition of Neurotransmitter Transporter Activity, NET ([16]; 10 μM): 11%; % Inhibition of Neurotransmitter Transporter Activity, SERT ([17]; 10 μM): 14%
C[C@@H](N)C1CCN(S(=O)(=O)c2cccc3cnccc23)CC1 [BA-1049 (R)]	89%	94%	100%	92%	67%	100%	100%	94%	99%	99%	74%	70%	findings in daily repeat dosing ([18]; 1 mg/kg and 10 mg/kg once daily I.P. for 2 weeks): no abnormal findings; no observed effect level dose ([18]; 2 week repeat dose, I.P.): 10 mg/kg; ½ Life [19]: 15.3 min; metabolism by hepatocytes [20]: do not show any detectable metabolism; ½ Life [20]: >480 min; ½ Life [21]: 2.2 min; time detectable in brain after administration ([1]; 5 mg/kg BA-1049 (R) IV): at least 24 hr; EC50 ([4]; Homo sapiens, HUVEC): 3830 nM; inhibition at 10 µM [16]: 12%; inhibition at 10 µM ([17]; read-out: % Inhibition of Neurotransmitter Transporter Activity, SERT): 9%; activity against targets in the total SAFETYscan [22]: no activity against any of the targets in the total SAFETYscan™; Fractional Selectivity for ROCK2 [23]: 1.86; Kd ([24]; ROCK2 KD, average of duplicate determinations, Table 5): 63 nM; Kd ([24]; ROCK2 Kd, Table 1): 59 nM
